{"source": "paper PMC12920294", "about": "“Optimizing uPAR-targeting radiopeptides for improved tissue distribution: progress towards radionuclide therapy” (European Journal of Nuclear Medicine and Molecular Imaging, 2025)", "key": {"mouse serum albumin": {"molecular_target": "T1, mouse serum albumin (Mus musculus, UniProt P07724)", "T1 construct": "tissue Rockland Immunochemicals Inc., USA Lot: 32321; host or cells: mouse blood plasma", "T1 sequence (P07724 25-608)": "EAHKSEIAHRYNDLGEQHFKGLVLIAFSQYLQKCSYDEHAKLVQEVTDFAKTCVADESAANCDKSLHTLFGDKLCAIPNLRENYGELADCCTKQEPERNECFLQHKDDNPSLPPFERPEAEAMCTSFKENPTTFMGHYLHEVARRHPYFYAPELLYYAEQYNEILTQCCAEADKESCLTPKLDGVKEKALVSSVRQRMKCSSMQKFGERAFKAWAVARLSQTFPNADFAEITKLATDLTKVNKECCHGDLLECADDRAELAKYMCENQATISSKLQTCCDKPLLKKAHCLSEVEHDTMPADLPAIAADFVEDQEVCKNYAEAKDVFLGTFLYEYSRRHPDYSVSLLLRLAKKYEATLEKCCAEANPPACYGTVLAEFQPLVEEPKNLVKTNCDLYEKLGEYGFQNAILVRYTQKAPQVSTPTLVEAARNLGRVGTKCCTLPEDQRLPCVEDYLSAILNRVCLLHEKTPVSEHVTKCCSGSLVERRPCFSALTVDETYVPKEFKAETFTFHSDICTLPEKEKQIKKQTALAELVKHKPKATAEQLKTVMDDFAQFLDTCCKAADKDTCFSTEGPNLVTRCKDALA", "type": "in vitro ADME", "description": "(§1) The albumin-binding properties of the radiopeptides in mouse and human blood plasma were determined using an ultrafiltration assay with Amicon centrifugal filters (cut-off of 10 kDa; Merck Millipore) as previously reported (Supplementary Material). A fixed amount of the respective radiopeptide (~ 300 kBq, 15 µL, 6 pmol) was added to a defined volume (150 µL) of mouse and human blood plasma dilutions to obtain [mouse serum albumin]-to-[radiopeptide] molar concentration ratios of 0.01‒12,500 and [human serum albumin]-to-[radiopeptide] molar concentration ratios of 0.01‒20,000. The data were analyzed using a semi-logarithmic Hill plot with the maximum binding set as 100% using GraphPad Prism software (version 10.1.1). The half-maximum binding (B50 values) of each radiopeptide was expressed as relative values using the inverse ratios with the value of [^177Lu]Lu-uPAR-11 set as 1.0. […] The samples were incubated at 37 °C for 30 min. Ice-cold PBS (150 µL, pH 7.4) was added before loading the blood plasma samples on Amicon centrifugal filters (cut-off of 10 kDa; Merck Millipore) followed by centrifugation (14000 rcf, 4 °C, 30 min) to allow the separation of the plasma protein-bound from the unbound (free) fractions of each sample. The inserts of the filter devices were inverted and centrifuged at 200 rcf for 3 min to recover the protein-bound radiopeptide. The activity of the protein-bound fraction was measured using a γ-counter (Wallac Wizard 1480, PerkinElmer). The activity in the filtrate and filter unit was counted in the γ-counter and the counts were combined, assuming that the fraction retained in the filter membrane was not bound to proteins. The protein-bound fraction was expressed as percentage of the whole activity (i.e. plasma protein-bound activity, activity measured in the filtrate and activity measured in the filter (set as 100%)). The data were analyzed using a semi-logarithmic plot assuming a maximum binding of 100%. The Hill equation was fitted to the data points, and the half-maximum binding (B50) was determined based on the obtained binding curves using GraphPad Prism software (version 10.1.1). To quantitatively express and compare the albumin-binding properties of the radiopeptides, the relative albumin-binding affinity was expressed as the inverse half-maximal-binding (B50) of the respective radioligand to that of [^177Lu]Lu-uPAR-11, which was set as 1.0. The results were presented as the value obtained from the average curve from 3 independent experiments."}, "human serum albumin": {"molecular_target": "human serum albumin (Homo sapiens, UniProt P02768)", "sequence (P02768 25-609)": "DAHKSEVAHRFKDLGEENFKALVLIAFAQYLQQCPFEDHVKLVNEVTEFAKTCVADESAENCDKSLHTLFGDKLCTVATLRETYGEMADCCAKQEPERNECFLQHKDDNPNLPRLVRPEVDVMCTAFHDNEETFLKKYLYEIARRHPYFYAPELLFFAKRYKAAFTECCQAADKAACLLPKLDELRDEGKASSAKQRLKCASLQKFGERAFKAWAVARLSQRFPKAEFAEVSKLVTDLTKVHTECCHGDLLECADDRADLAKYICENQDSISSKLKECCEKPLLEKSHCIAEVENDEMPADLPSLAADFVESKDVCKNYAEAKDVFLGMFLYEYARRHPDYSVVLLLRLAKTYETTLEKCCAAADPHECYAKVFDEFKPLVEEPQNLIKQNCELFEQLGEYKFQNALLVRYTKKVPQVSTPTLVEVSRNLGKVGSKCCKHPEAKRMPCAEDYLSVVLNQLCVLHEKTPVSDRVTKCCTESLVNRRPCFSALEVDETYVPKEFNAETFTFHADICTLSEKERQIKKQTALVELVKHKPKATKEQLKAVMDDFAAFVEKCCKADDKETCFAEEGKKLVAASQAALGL", "type": "in vitro ADME", "set-up": "tissue Stiftung Blutspende SRK Aargau-Solothurn, Switzerland; host or cells: human blood plasma", "description": "as §1"}, "in vivo": {"experiment": "in vivo", "conditions": "CD1 nude, mouse, 0.5 nmol/mouse, total radioactivity", "procedure": "HEK-uPAR xenografted mice were injected with the respective radiopeptide (5 MBq, 0.5 nmol/mouse, 100 µL 0.9% NaCl containing 0.05% BSA) and sacrificed at 4 h and 24 h after injection. […] The tissues and organs of interest were collected, weighed and counted for activity using a γ-counter (Wallac Wizard 1480, PerkinElmer). […] The results were presented as the average ± SD of n = 3 mice. The time-activity curves were determined for the uptake of [^177Lu]Lu-DOTA-AE105 and [^177Lu]Lu-uPAR-11 in the blood, HEK-uPAR xenografts, kidneys and liver based on non-decay corrected biodistribution data. For the blood, the initial uptake (t = 0) was set as 50% IA/g assuming a blood volume of 2 mL for CD1 nude mice. The initial uptake value (t = 0) for all other organs and tissues was set as 0% IA/g. […] The area under the curves over 48 h after injection (AUC0h→48 h) was calculated using GraphPad Prism software (version 10.1.1). Statistical analyses were performed by applying a one-way ANOVA test with a Dunnet’s multiple comparison post‐test to compare the data of the new radiopeptides with those of [^177Lu]Lu-DOTA-AE105 and a Tukey’s multiple comparisons post‐test to compare the novel radiopeptides among them. A p-value of < 0.05 was considered a statistically significant difference using GraphPad Prism software (version 10.1.1)."}, "[1]": {"type": "in vitro ADME", "conditions": "1 µM", "description": "The ^177Lu-labeled peptides (50 MBq/nmol) were incubated in mouse or human blood plasma (10 MBq/200 µL) over an incubation period of 24 h at 37 °C. Aliquots and control samples of the radiopeptides diluted in saline were analyzed after 1 h, 4 h and 24 h using thin layer chromatography (TLC) as previously reported (Supplementary Material). The distribution coefficients (logD values) of the ^177Lu-labeled peptides (50 MBq/nmol) were determined using a shake-flask method according to a previously published procedure (Supplementary Material).\nMethods: A sample of each radiopeptide (50 MBq/nmol) was added to mouse blood plasma (Lot: 32321, Rockland Immunochemicals Inc., USA) or to human blood plasma (Stiftung Blutspende SRK Aargau-Solothurn, Switzerland) to obtain an activity concentration of 10 MBq/200 µL. The test samples were incubated at 37 °C for up to 24 h. Control samples referred to the radiopeptides which were instead diluted in saline at an activity concentration of 10 MBq/200 µL. Aliquots of each sample (2 µL, ~100 kBq) were taken after 1 h, 4 h and 24 h and investigated by means of thin layer chromatography (TLC). The employed method involved reversed-phase TLC plates (MERCK Analytical Chromatography, TLC Silica gel 60 RP-18 F254s) as stationary phase and ACN/citrate buffer (3:7; v/v; pH 5.5) as mobile phase. After the eluent reached the front line, the TLC plates were dried and exposed to a phosphor screen (Super resolution screen PSR10450013, PerkinElmer) for 1 min. The respective screen was developed using a storage phosphor system (Cyclone Plus, PerkinElmer) and analyzed using the OptiQuant Software (version 5.0, Bright Instrument Co Ltd., PerkinElmer)."}}, "note": "Like-named read-outs stand apart in the source and are kept apart here. Marks after values point to notes of the source that are not given here.", "data": [{"smiles": "Cc1ccc(CCCC(=O)NCCOCCOCCOCCOCCC(=O)NCCCC[C@H](NC(=O)CN2CCN(CC(=O)O)CCN(CC(=O)O)CCN(CC(=O)O)CC2)C(=O)N[C@@H](CC(=O)O)C(=O)N[C@@H](CC2CCCCC2)C(=O)N[C@@H](Cc2ccccc2)C(=O)N[C@H](CO)C(=O)N[C@H](CCCNC(=N)N)C(=O)N[C@@H](Cc2ccc(O)cc2)C(=O)N[C@@H](CC(C)C)C(=O)N[C@@H](Cc2c[nH]c3ccccc23)C(=O)N[C@@H](CO)C(N)=O)cc1", "note": "[[^177Lu]Lu-uPAR-11, metal not drawn]", "values": [{"measurement": "Weaker affinity to mouse albumin than [177Lu]Lu-uPAR-02", "setting": "mouse serum albumin", "value": 3.2, "unit": "fold"}, {"measurement": "Inverse relative albumin-binding affinity", "setting": "human serum albumin", "value": "1.00^b"}, {"measurement": "Weaker affinity to human albumin than [177Lu]Lu-uPAR-02", "setting": "human serum albumin", "value": 4.6, "unit": "fold"}, {"measurement": "tissue uptake at 1 h", "setting": "in vivo; Blood uptake", "value": "13 ± 2", "unit": "%ID/g"}, {"measurement": "tissue uptake at 4 h", "setting": "in vivo; Blood uptake", "value": "5 ± 0.6", "unit": "%ID/g"}, {"measurement": "tissue uptake at 24 h", "setting": "in vivo; Blood uptake", "value": "< 0.03", "unit": "%ID/g"}, {"measurement": "tissue uptake at 48 h", "setting": "in vivo; Blood uptake", "value": "< 0.03", "unit": "%ID/g"}, {"measurement": "tissue uptake at 1 h", "setting": "in vivo; Bone uptake", "value": "1.7 ± 0.4", "unit": "%ID/g"}, {"measurement": "tissue uptake at 4 h", "setting": "in vivo; Bone uptake", "value": "0.73 ± 0.06", "unit": "%ID/g"}, {"measurement": "tissue uptake at 24 h", "setting": "in vivo; Bone uptake", "value": "0.19 ± 0.03", "unit": "%ID/g"}, {"measurement": "tissue uptake at 48 h", "setting": "in vivo; Bone uptake", "value": "0.11 ± 0.02", "unit": "%ID/g"}, {"measurement": "tissue uptake at 1 h", "setting": "in vivo; Brain uptake", "value": "0.28 ± 0.03", "unit": "%ID/g"}, {"measurement": "tissue uptake at 4 h", "setting": "in vivo; Brain uptake", "value": "0.12 ± 0.23", "unit": "%ID/g"}, {"measurement": "tissue uptake at 24 h", "setting": "in vivo; Brain uptake", "value": "< 0.03", "unit": "%ID/g"}, {"measurement": "tissue uptake at 48 h", "setting": "in vivo; Brain uptake", "value": "< 0.03", "unit": "%ID/g"}, {"measurement": "tissue uptake at 1 h", "setting": "in vivo; HEK-uPAR xenograft uptake", "value": "13 ± 2", "unit": "%ID/g"}, {"measurement": "tissue uptake at 4 h", "setting": "in vivo; HEK-uPAR xenograft uptake", "value": "16 ± 2", "unit": "%ID/g"}, {"measurement": "tissue uptake at 24 h", "setting": "in vivo; HEK-uPAR xenograft uptake", "value": "7.9 ± 0.9", "unit": "%ID/g"}, {"measurement": "tissue uptake at 48 h", "setting": "in vivo; HEK-uPAR xenograft uptake", "value": "5.3 ± 0.7", "unit": "%ID/g"}, {"measurement": "tissue uptake at 1 h", "setting": "in vivo; Heart uptake", "value": "4.9 ± 0.3", "unit": "%ID/g"}, {"measurement": "tissue uptake at 4 h", "setting": "in vivo; Heart uptake", "value": "1.8 ± 0.2", "unit": "%ID/g"}, {"measurement": "tissue uptake at 24 h", "setting": "in vivo; Heart uptake", "value": "0.12 ± 0.02", "unit": "%ID/g"}, {"measurement": "tissue uptake at 48 h", "setting": "in vivo; Heart uptake", "value": "0.08 ± 0.01", "unit": "%ID/g"}, {"measurement": "tissue uptake at 1 h", "setting": "in vivo; Intestines uptake", "value": "1.8 ± 0.2", "unit": "%ID/g"}, {"measurement": "tissue uptake at 4 h", "setting": "in vivo; Intestines uptake", "value": "0.93 ± 0.11", "unit": "%ID/g"}, {"measurement": "tissue uptake at 24 h", "setting": "in vivo; Intestines uptake", "value": "0.19 ± 0.01", "unit": "%ID/g"}, {"measurement": "tissue uptake at 48 h", "setting": "in vivo; Intestines uptake", "value": "0.14 ± 0.03", "unit": "%ID/g"}, {"measurement": "tissue uptake at 1 h", "setting": "in vivo; Kidneys uptake", "value": "6.8 ± 0.9", "unit": "%ID/g"}, {"measurement": "tissue uptake at 4 h", "setting": "in vivo; Kidneys uptake", "value": "4 ± 0.4", "unit": "%ID/g"}, {"measurement": "tissue uptake at 24 h", "setting": "in vivo; Kidneys uptake", "value": "1.3 to 1.7", "unit": "%ID/g"}, {"measurement": "tissue uptake at 48 h", "setting": "in vivo; Kidneys uptake", "value": "1.1 ± 0.1", "unit": "%ID/g"}, {"measurement": "tissue uptake at 1 h", "setting": "in vivo; Liver uptake", "value": "4.5 ± 0.3", "unit": "%ID/g"}, {"measurement": "tissue uptake at 4 h", "setting": "in vivo; Liver uptake", "value": "1.8 ± 0.2", "unit": "%ID/g"}, {"measurement": "tissue uptake at 24 h", "setting": "in vivo; Liver uptake", "value": "0.33 ± 0.03", "unit": "%ID/g"}, {"measurement": "tissue uptake at 48 h", "setting": "in vivo; Liver uptake", "value": "0.25 ± 0.02", "unit": "%ID/g"}, {"measurement": "tissue uptake at 1 h", "setting": "in vivo; Lung uptake", "value": "7 ± 1.3", "unit": "%ID/g"}, {"measurement": "tissue uptake at 4 h", "setting": "in vivo; Lung uptake", "value": "3.1 ± 0.2", "unit": "%ID/g"}, {"measurement": "tissue uptake at 24 h", "setting": "in vivo; Lung uptake", "value": "0.29 ± 0.08", "unit": "%ID/g"}, {"measurement": "tissue uptake at 48 h", "setting": "in vivo; Lung uptake", "value": "0.17 ± 0.02", "unit": "%ID/g"}, {"measurement": "tissue uptake at 1 h", "setting": "in vivo; Muscle uptake", "value": "1.4 ± 0.3", "unit": "%ID/g"}, {"measurement": "tissue uptake at 4 h", "setting": "in vivo; Muscle uptake", "value": "0.63 ± 0.09", "unit": "%ID/g"}, {"measurement": "tissue uptake at 24 h", "setting": "in vivo; Muscle uptake", "value": 0.05, "unit": "%ID/g"}, {"measurement": "tissue uptake at 48 h", "setting": "in vivo; Muscle uptake", "value": "0.04 ± 0.01", "unit": "%ID/g"}, {"measurement": "tissue uptake at 1 h", "setting": "in vivo; Pancreas uptake", "value": "1.7 ± 0.2", "unit": "%ID/g"}, {"measurement": "tissue uptake at 4 h", "setting": "in vivo; Pancreas uptake", "value": "0.69 ± 0.05", "unit": "%ID/g"}, {"measurement": "tissue uptake at 24 h", "setting": "in vivo; Pancreas uptake", "value": "0.09 ± 0.02", "unit": "%ID/g"}, {"measurement": "tissue uptake at 48 h", "setting": "in vivo; Pancreas uptake", "value": "0.07 ± 0.02", "unit": "%ID/g"}, {"measurement": "tissue uptake at 1 h", "setting": "in vivo; Salivary glands uptake", "value": "2.9 ± 0.5", "unit": "%ID/g"}, {"measurement": "tissue uptake at 4 h", "setting": "in vivo; Salivary glands uptake", "value": "1.3 ± 0.2", "unit": "%ID/g"}, {"measurement": "tissue uptake at 24 h", "setting": "in vivo; Salivary glands uptake", "value": "0.17 ± 0.02", "unit": "%ID/g"}, {"measurement": "tissue uptake at 48 h", "setting": "in vivo; Salivary glands uptake", "value": "0.18 ± 0.04", "unit": "%ID/g"}, {"measurement": "tissue uptake at 1 h", "setting": "in vivo; Spleen uptake", "value": "2.2 ± 0.3", "unit": "%ID/g"}, {"measurement": "tissue uptake at 4 h", "setting": "in vivo; Spleen uptake", "value": "1.1 ± 0.1", "unit": "%ID/g"}, {"measurement": "tissue uptake at 24 h", "setting": "in vivo; Spleen uptake", "value": "0.49 ± 0.05", "unit": "%ID/g"}, {"measurement": "tissue uptake at 48 h", "setting": "in vivo; Spleen uptake", "value": "0.37 ± 0.05", "unit": "%ID/g"}, {"measurement": "tissue uptake at 1 h", "setting": "in vivo; Stomach uptake", "value": "1.8 ± 0.5", "unit": "%ID/g"}, {"measurement": "tissue uptake at 4 h", "setting": "in vivo; Stomach uptake", "value": "0.75 ± 0.19", "unit": "%ID/g"}, {"measurement": "tissue uptake at 24 h", "setting": "in vivo; Stomach uptake", "value": "0.12 ± 0.01", "unit": "%ID/g"}, {"measurement": "tissue uptake at 48 h", "setting": "in vivo; Stomach uptake", "value": 0.09, "unit": "%ID/g"}, {"measurement": "Human blood plasma stability, intact radiopeptide", "setting": "[1]; 1 h", "value": "99 ± 1", "unit": "%"}, {"measurement": "Mouse blood plasma stability, intact radiopeptide", "setting": "[1]; 1 h", "value": "99 ± 1", "unit": "%"}, {"measurement": "Human blood plasma stability, intact radiopeptide", "setting": "[1]; 4 h", "value": "99 ± 1", "unit": "%"}, {"measurement": "Mouse blood plasma stability, intact radiopeptide", "setting": "[1]; 4 h", "value": "99 ± 1", "unit": "%"}, {"measurement": "Human blood plasma stability, intact radiopeptide", "setting": "[1]; 24 h", "value": "95 ± 1", "unit": "%"}, {"measurement": "Mouse blood plasma stability, intact radiopeptide", "setting": "[1]; 24 h", "value": "95 ± 1", "unit": "%"}]}]}
